Reference: US3953483A, “17-Nor-6-methyl-steroids” (Takeda Chemical Industries, Ltd., priority 1973, dated 1976)
Entries after “also recorded” stand apart in the source; their conditions may differ.

Tests used:
[1] = test system: seminal vesicles, ventral prostate and dorsal prostates; experiment: anti-androgenic activity: inhibition of testosterone propionate-induced weight increase of secondary sex structures in castrated male rats, oral dosing; format: in vivo, rats (SD-JCL strain); conditions: for Percent inhibition: Dorsal prostate / Percent inhibition: Seminal vesicles / Percent inhibition: Ventral prostate / Weight of organs: Dorsal prostate / Weight of organs: Seminal vesicles / Weight of organs: Ventral prostate: 5 rats; for Weight of organs: Dorsal prostate / Weight of organs: Seminal vesicles / Weight of organs: Ventral prostate: average ± standard error
Experimental: The following is the assay data on the anti-androgenic activity of 6-methylandrosta-4,6-dien-3-one(the test compound), a compound obtainable by the method of this invention. Testing procedure: Male rats of the SD-JCL strain, 21 days of age (body weights 40-55 g.) are castrated and, beginning on the next day, a daily dose of the test compound is suspended in 0.5 ml. of aqueous solvent and orally administered via a gastric catheter once daily, every day excepting Sundays, for a total of 10 times (12 days). Simultaneously with the administration of the test compound, a daily dose of 0.15 mg. of testosterone propionate is dissolved in 0.2 ml. of sesame oil and subcutaneously injected into the dorsal region of the neck.
On the day following the last day of administration, the rats are exsanguinated under ether anaesthesia and the seminal vesicles, ventral prostate and dorsal prostates are weighed. The anti-androgenic potency of the test compound is determined as follows.
dosed with testosterone
- dosed with testosterone
(%) dosed with testosterone

[2] = test system: anti-androgenic activity; conditions: known compounds, background; cited from earlier work
[3] = test system: liver; conditions: known compound, background; cited from earlier work
[4] = test compound 9.6mg. × 10 oral + testosterone propionate 0.15mg. × 10 s.c.
[5] = test compound 38.4mg. × 10 oral + testosterone propionate 0.15mg. × 10 s.c.
[6] = testosterone propionate 0.15mg. × 10 s.c. alone

With `CC1=C[C@H]2[C@@H]3CCC[C@@]3(C)CC[C@@H]2[C@@]2(C)CCC(=O)C=C12` [test compound, 6-methylandrosta-4,6-dien-3-one] the “inhibition of weight increases of secondary sex structures / anti-androgenic activity (in words)” value ([1]; oral, caused by testosterone propionate) was “significantly inhibits the weight increases of various secondary sex structures; also recorded: the degree of inhibition (percent inhibition) being proportional to the dosage; also recorded: potent anti-androgenic activity”, the “Percent inhibition: Dorsal prostate” value [1, 4] was 38% and the “Percent inhibition: Seminal vesicles” value [1, 4] was 53%. The “Percent inhibition: Ventral prostate” value [1, 4] was 34%, the “Weight of organs: Dorsal prostate” value [1, 4] was 62 ± 3 mg and the “Weight of organs: Seminal vesicles” value [1, 4] was 164 ± 15 mg. For the same molecule, the “Weight of organs: Ventral prostate” value [1, 4] was 100 ± 4 mg, the “Percent inhibition: Dorsal prostate” value [1, 5] was 59% and the “Percent inhibition: Seminal vesicles” value [1, 5] was 77%. For the same molecule, the “Percent inhibition: Ventral prostate” value [1, 5] was 53%, the “Weight of organs: Dorsal prostate” value [1, 5] was 44 ± 2 mg and the “Weight of organs: Seminal vesicles” value [1, 5] was 82 ± 5 mg. The “Weight of organs: Ventral prostate” value [1, 5] was 74 ± 4 mg.
In the case of `CC[C@H]1C[C@H]2[C@@H]3CCC4=CC(=O)CC[C@@H]4[C@H]3CC[C@]2(C)[C@H]1O` [16β-ethyl-17β-hydroxyestr-4-en-3-one], the “effectiveness by oral administration” value [2] is listed as “little effective by oral administration”.
In the case of `C[C@]12CC[C@H]3[C@@H](CCC4=CC(=O)CC[C@@H]43)[C@@H]1C[C@H](C1CCCCC1)[C@@H]2O` [16β-cyclohexyl-17β-hydroxyestr-4-en-3-one], the “effectiveness by oral administration” value [2] is given as “little effective by oral administration”.
In the case of `CCCCCC(=O)O[C@]1(C(C)=O)CC[C@H]2[C@@H]3CCC4=CC(=O)CC[C@@H]4[C@H]3CC[C@@]21C` [17α-caproyloxy-19-norprogesterone], the side effect [3] is given as “causes `fatty liver` as a side effect”.
With `CCC(=O)O[C@H]1CC[C@H]2[C@@H]3CCC4=CC(=O)CC[C@]4(C)[C@H]3CC[C@]12C` [testosterone propionate, reference compound] the “Weight of organs: Dorsal prostate” value [1, 6] was 96 ± 3 mg, the “Weight of organs: Seminal vesicles” value [1, 6] was 337 ± 27 mg and the “Weight of organs: Ventral prostate” value [1, 6] was 147 ± 7 mg.
For `CC[C@H]1C[C@H]2[C@@H]3CCC4=CC(=O)CC[C@@H]4[C@H]3CC[C@]2(C)[C@H]1OC(C)=O` [17β-acetyloxy-16β-ethylestr-4-en-3-one], the “effectiveness by oral administration” value [2] is given as “little effective by oral administration”.
